Test results published in patent US9669003B2, “Use of flavone and flavanone derivatives in preparation of sedative and hypnotic drugs” (priority 2012, dated 2017).
Marks after values point to notes of the source that are not given here.

Legend:
Type in all cases: in vivo
Kunming mice [1] = test: Influence on hypnosis effect with pentobarbital sodium doses at the threshold (50 mg/kg i.p.); conditions: pentobarbital sodium 50 mg/kg i.p. 60 min later, x ± s, n = 10
How it was run: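 Kunming mice (10/group, half each sex) received compound in 0.5% CMC-Na intragastrically at 25, 50 or 100 mg/kg; 60 min later given 0.3% sodium pentobarbital 50 mg/kg i.p. Sleep latency and duration recorded by loss of righting reflex over 1 min; ANOVA and χ2 for sleep incidence.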

Kunming mice [2] = test: Influence on autonomic activity of normal mice (ZIL-2 mice autonomic activity meter, counts within 10 min); conditions: intragastric, x ± s; for Times of activities in 1 h after drug administration/10 min: 1 h after administration; for Times of activities in 2 h after drug administration/10 min: 2 h after administration; for Times of activities in 24 h after drug administration/10 min: 24 h after administration
How it was run: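 Kunming mice (10 per group, half each sex) were dosed at 25, 50 or 100 mg/kg in 0.5% CMC-Na. Spontaneous activity counts over 10 min were recorded at 1 h, 2 h and 24 h post-dose. Groups were compared by ANOVA with Dunnett's test after Levene's check.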

Kunming mice [3] = test: Influence on hypnosis effect with pentobarbital sodium doses below the threshold (25 mg/kg i.p.); conditions: pentobarbital sodium 25 mg/kg i.p. 60 min later, sleep observed in 30 min, n = 10
How it was run: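 Kunming mice (10 per group, half female) given single oral doses of 25, 50 or 100 mg/kg in 0.5% CMC-Na; 60 min later pentobarbital sodium 25 mg/kg i.p. Sleep (righting reflex lost >1 min) scored within 30 min as percentage asleep, χ2 test.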

[4] = 25 mg/kg intragastric single dose
[5] = 50 mg/kg intragastric single dose
[6] = 100 mg/kg intragastric single dose
[7] = test drug 25 mg/kg intragastric single dose
[8] = test drug 50 mg/kg intragastric single dose
[9] = test drug 100 mg/kg intragastric single dose

SMILES: CC=Cc1c(C(=O)O)cc2c(=O)cc(-c3ccc(F)c(C#N)c3)oc2c1C(=O)O [Example 34]
- duration of sleep (Kunming mice [1]; [4]): 37.89 ± 15.21 min
- time to sleep (Kunming mice [1]; [4]): 4.39 ± 1.61 min
- duration of sleep (Kunming mice [1]; [5]): 44.75 ± 21.85 min
- time to sleep (Kunming mice [1]; [5]): 3.87 ± 1.42 min
- duration of sleep (Kunming mice [1]; [6]): 54.77 ± 19.67 min
- time to sleep (Kunming mice [1]; [6]): 3.45 ± 1.38 min
- Times of activities in 1 h after drug administration/10 min (Kunming mice [2]; 25 mg/kg, n = 10): 292.2 ± 49.3 /10 min
- Times of activities in 2 h after drug administration/10 min (Kunming mice [2]; 25 mg/kg, n = 10): 276.2 ± 43.8 /10 min
- Times of activities in 24 h after drug administration/10 min (Kunming mice [2]; 25 mg/kg, n = 10): 313.2 ± 75.4 /10 min
- Times of activities in 1 h after drug administration/10 min (Kunming mice [2]; 50 mg/kg, n = 10): 249.4 ± 62.4 /10 min
- Times of activities in 2 h after drug administration/10 min (Kunming mice [2]; 50 mg/kg, n = 10): 263.3 ± 59.3 /10 min
- Times of activities in 24 h after drug administration/10 min (Kunming mice [2]; 50 mg/kg, n = 10): 334.7 ± 72.3 /10 min
- Times of activities in 1 h after drug administration/10 min (Kunming mice [2]; 100 mg/kg, n = 10): 127.8 ± 28.6 /10 min
- Times of activities in 2 h after drug administration/10 min (Kunming mice [2]; 100 mg/kg, n = 10): 243.9 ± 40.5 /10 min
- Times of activities in 24 h after drug administration/10 min (Kunming mice [2]; 100 mg/kg, n = 10): 298.7 ± 81.8 /10 min
- Number of sleeping animals (Kunming mice [3]; [7]): 2
- rate of sleeping (%) (Kunming mice [3]; [7]): 20%
- Number of sleeping animals (Kunming mice [3]; [8]): 4
- rate of sleeping (%) (Kunming mice [3]; [8]): 40* %
- Number of sleeping animals (Kunming mice [3]; [9]): 6
- rate of sleeping (%) (Kunming mice [3]; [9]): 60** %

SMILES: CCCc1cc2c(=O)cc(-c3ccc(C(=O)O)c(C(N)=O)c3)oc2c(I)c1CCS(=O)(=O)O [Example 35]
- duration of sleep (Kunming mice [1]; [4]): 38.25 ± 15.16 min
- time to sleep (Kunming mice [1]; [4]): 4.35 ± 1.42 min
- duration of sleep (Kunming mice [1]; [5]): 57.54 ± 28.39 min
- time to sleep (Kunming mice [1]; [5]): 3.88 ± 1.16 min
- duration of sleep (Kunming mice [1]; [6]): 58.38 ± 26.82 min
- time to sleep (Kunming mice [1]; [6]): 3.76 ± 1.49 min
- Times of activities in 1 h after drug administration/10 min (Kunming mice [2]; 25 mg/kg, n = 10): 336.84 ± 57.8 /10 min
- Times of activities in 2 h after drug administration/10 min (Kunming mice [2]; 25 mg/kg, n = 10): 278.8 ± 49.0 /10 min
- Times of activities in 24 h after drug administration/10 min (Kunming mice [2]; 25 mg/kg, n = 10): 307.4 ± 69.8 /10 min
- Times of activities in 1 h after drug administration/10 min (Kunming mice [2]; 50 mg/kg, n = 10): 310.3 ± 48.9 /10 min
- Times of activities in 2 h after drug administration/10 min (Kunming mice [2]; 50 mg/kg, n = 10): 244.8 ± 39.6 /10 min
- Times of activities in 24 h after drug administration/10 min (Kunming mice [2]; 50 mg/kg, n = 10): 308.1 ± 954 /10 min
- Times of activities in 1 h after drug administration/10 min (Kunming mice [2]; 100 mg/kg, n = 10): 266.8 ± 50.1 /10 min
- Times of activities in 2 h after drug administration/10 min (Kunming mice [2]; 100 mg/kg, n = 10): 219.6 ± 47.7 /10 min
- Times of activities in 24 h after drug administration/10 min (Kunming mice [2]; 100 mg/kg, n = 10): 321.5 ± 72.9 /10 min
- Number of sleeping animals (Kunming mice [3]; [7]): 4
- rate of sleeping (%) (Kunming mice [3]; [7]): 40* %
- Number of sleeping animals (Kunming mice [3]; [8]): 6
- rate of sleeping (%) (Kunming mice [3]; [8]): 60** %
- Number of sleeping animals (Kunming mice [3]; [9]): 7
- rate of sleeping (%) (Kunming mice [3]; [9]): 70** %

SMILES: COc1cc(OC)c2c(=O)cc(-c3ccc(OC)c(OC)c3)oc2c1 [Example 36]
- duration of sleep (Kunming mice [1]; [4]): 38.32 ± 20.03 min
- time to sleep (Kunming mice [1]; [4]): 4.21 ± 1.65 min
- duration of sleep (Kunming mice [1]; [5]): 61.41 ± 26.54 min
- time to sleep (Kunming mice [1]; [5]): 3.77 ± 1.12 min
- duration of sleep (Kunming mice [1]; [6]): 72.03 ± 21.92 min
- time to sleep (Kunming mice [1]; [6]): 3.09 ± 1.25 min
- Times of activities in 1 h after drug administration/10 min (Kunming mice [2]; 25 mg/kg, n = 10, 25 mg/kg): 321.4 ± 53.4 /10 min
- Times of activities in 2 h after drug administration/10 min (Kunming mice [2]; 25 mg/kg, n = 10, 25 mg/kg): 310.8 ± 51.5 /10 min
- Times of activities in 24 h after drug administration/10 min (Kunming mice [2]; 25 mg/kg, n = 10, 25 mg/kg): 300.2 ± 79.6 /10 min
- Times of activities in 1 h after drug administration/10 min (Kunming mice [2]; 50 mg/kg, n = 10, 50 mg/kg): 289.9 ± 44.8 /10 min
- Times of activities in 2 h after drug administration/10 min (Kunming mice [2]; 50 mg/kg, n = 10, 50 mg/kg): 258.2 ± 43.6 /10 min
- Times of activities in 24 h after drug administration/10 min (Kunming mice [2]; 50 mg/kg, n = 10, 50 mg/kg): 311.5 ± 98.3 /10 min
- Times of activities in 1 h after drug administration/10 min (Kunming mice [2]; 100 mg/kg, n = 10, 100 mg/kg): 288.3 ± 50.4 /10 min
- Times of activities in 2 h after drug administration/10 min (Kunming mice [2]; 100 mg/kg, n = 10, 100 mg/kg): 235.8 ± 49.8 /10 min
- Times of activities in 24 h after drug administration/10 min (Kunming mice [2]; 100 mg/kg, n = 10, 100 mg/kg): 322.6 ± 76.8 /10 min
- Number of sleeping animals (Kunming mice [3]; [7]): 3
- rate of sleeping (%) (Kunming mice [3]; [7]): 30%
- Number of sleeping animals (Kunming mice [3]; [8]): 4
- rate of sleeping (%) (Kunming mice [3]; [8]): 40* %
- Number of sleeping animals (Kunming mice [3]; [9]): 6
- rate of sleeping (%) (Kunming mice [3]; [9]): 60** %

SMILES: N#Cc1cc(-c2cc(=O)c3c(N)cc(F)cc3o2)ccc1O [Example 37]
- duration of sleep (Kunming mice [1]; [4]): 30.27 ± 22.71 min
- time to sleep (Kunming mice [1]; [4]): 4.99 ± 1.97 min
- duration of sleep (Kunming mice [1]; [5]): 40.03 ± 20.58 min
- time to sleep (Kunming mice [1]; [5]): 3.98 ± 1.46 min
- duration of sleep (Kunming mice [1]; [6]): 57.51 ± 25.63 min
- time to sleep (Kunming mice [1]; [6]): 3.88 ± 1.43 min
- Times of activities in 1 h after drug administration/10 min (Kunming mice [2]; 25 mg/kg, n = 10): 321.4 ± 62.4 /10 min
- Times of activities in 2 h after drug administration/10 min (Kunming mice [2]; 25 mg/kg, n = 10): 288.0 ± 38.9 /10 min
- Times of activities in 24 h after drug administration/10 min (Kunming mice [2]; 25 mg/kg, n = 10): 335.3 ± 65.2 /10 min
- Times of activities in 1 h after drug administration/10 min (Kunming mice [2]; 50 mg/kg, n = 10): 279.7 ± 46.3 /10 min
- Times of activities in 2 h after drug administration/10 min (Kunming mice [2]; 50 mg/kg, n = 10): 259.5 ± 46.5 /10 min
- Times of activities in 24 h after drug administration/10 min (Kunming mice [2]; 50 mg/kg, n = 10): 333.8 ± 87.8 /10 min
- Times of activities in 1 h after drug administration/10 min (Kunming mice [2]; 100 mg/kg, n = 10): 277.3 ± 45.7 /10 min
- Times of activities in 2 h after drug administration/10 min (Kunming mice [2]; 100 mg/kg, n = 10): 222.8 ± 43.2 /10 min
- Times of activities in 24 h after drug administration/10 min (Kunming mice [2]; 100 mg/kg, n = 10): 317.8 ± 62.3 /10 min
- Number of sleeping animals (Kunming mice [3]; [7]): 3
- rate of sleeping (%) (Kunming mice [3]; [7]): 30%
- Number of sleeping animals (Kunming mice [3]; [8]): 6
- rate of sleeping (%) (Kunming mice [3]; [8]): 60** %
- Number of sleeping animals (Kunming mice [3]; [9]): 7
- rate of sleeping (%) (Kunming mice [3]; [9]): 70** %

SMILES: C=Cc1cc(C(N)=O)cc2oc(-c3ccc(N)c(C4CCSC4)c3)cc(=O)c12 (stereo not drawn) [Example 38]
- duration of sleep (Kunming mice [1]; [4]): 29.67 ± 21.25 min
- time to sleep (Kunming mice [1]; [4]): 4.92 ± 2.48 min
- duration of sleep (Kunming mice [1]; [5]): 36.68 ± 12.30 min
- time to sleep (Kunming mice [1]; [5]): 4.67 ± 1.55 min
- duration of sleep (Kunming mice [1]; [6]): 52.95 ± 20.05 min
- time to sleep (Kunming mice [1]; [6]): 3.98 ± 1.27 min
- Times of activities in 1 h after drug administration/10 min (Kunming mice [2]; 25 mg/kg, n = 10): 312.9 ± 40.6 /10 min
- Times of activities in 2 h after drug administration/10 min (Kunming mice [2]; 25 mg/kg, n = 10): 296.2 ± 34.6 /10 min
- Times of activities in 24 h after drug administration/10 min (Kunming mice [2]; 25 mg/kg, n = 10): 268.9 ± 82.8 /10 min
- Times of activities in 1 h after drug administration/10 min (Kunming mice [2]; 50 mg/kg, n = 10): 259.2 ± 54.6 /10 min
- Times of activities in 2 h after drug administration/10 min (Kunming mice [2]; 50 mg/kg, n = 10): 257.1 ± 57.2 /10 min
- Times of activities in 24 h after drug administration/10 min (Kunming mice [2]; 50 mg/kg, n = 10): 279.7 ± 76.5 /10 min
- Times of activities in 1 h after drug administration/10 min (Kunming mice [2]; 100 mg/kg, n = 10): 182.7 ± 41.3 /10 min
- Times of activities in 2 h after drug administration/10 min (Kunming mice [2]; 100 mg/kg, n = 10): 165.4 ± 56.2 /10 min
- Times of activities in 24 h after drug administration/10 min (Kunming mice [2]; 100 mg/kg, n = 10): 324.7 ± 80.9 /10 min
- Number of sleeping animals (Kunming mice [3]; [7]): 6
- rate of sleeping (%) (Kunming mice [3]; [7]): 60** %
- Number of sleeping animals (Kunming mice [3]; [8]): 8
- rate of sleeping (%) (Kunming mice [3]; [8]): 80*** %
- Number of sleeping animals (Kunming mice [3]; [9]): 9
- rate of sleeping (%) (Kunming mice [3]; [9]): 90*** %
